{
  "source": "patent US20210106579A1",
  "about": "“AMELIORATION OF COGNITIVE AND MOTOR DEFICITS ASSOCIATED WITH ALZHEIMER'S” (Neuralstem, Inc., priority 2018, published 2021)",
  "key": {"5XFAD mice [1]": {"test_system": "5XFAD mice", "experiment": "Barnes maze test (learning and memory retention) in Alzheimer's mouse model", "type": "in vivo", "settings": "30 mg/kg/day oral; for Memory retention (Barnes maze, retest after two days): 5XFAD mice", "method": "(§1) A mouse model of Alzheimer's disease obtained from Jackson Laboratory was used in this study. […] Wild type control B6SJLF1/J mice were used. 5XFAD mice developed cognitive impairments at 4-5 months of age. Four groups of mice were employed, 15 mice per group, a wild type control administered vehicle; a wild type control administered NSI-189 as the phosphate salt administered orally at a level of 30 mg/kg per day and 5XFAD mice administered vehicle or administered NSI-189 as the phosphate salt orally also at 30 mg/kg/day (of the organic moiety). NSI-189 is of Formula 2 wherein R^1 is isoamyl. The treatment began at 15 weeks and was maintained for 12 weeks with measurements made after 6 weeks and 12 weeks.\nThe Barnes maze test is described in King, M. R., et al., J. Neurosc. Res. (supra). The Barnes maze consists of a brightly lit, circular, white platform with 20 holes with equidistant spacing around the periphery. An escape box is placed beneath one of the holes marked by a visual clue. Before testing begins, the mouse is placed in the center of the platform and allowed to explore until either it finds the escape box or five minutes has elapsed. The time to locate the escape box is then recorded at the end of the session, the mouse is left in, or placed in, the escape box for an additional minute.\nThis system is used to test both learning and memory. To test learning, the mouse was placed in the maze for five consecutive days to ascertain whether the time required to find the escape box was decreased, which would indicate learning. To test memory retention, a subsequent period of two days was allowed to elapse and the mouse was retested to ascertain whether a decreased time in finding the escape box was found."}, "5XFAD mice [2]": {"test_system": "5XFAD mice", "experiment": "Object recognition test (short term memory) in Alzheimer's mouse model", "type": "in vivo", "settings": "30 mg/kg/day oral, 6 weeks of treatment, FIG. 5", "method": "as §1\nThe object recognition test is also described in King, M. R., et al. (supra). This is based on a concept that the mice will explore a novel object for a longer time than a familiar object. Two identical objects are placed equal distance from each other and from the side of a transparent box and mice are given 10 minutes to achieve 30 seconds of exploration of the two objects after which they are placed back in their home cage. […] The time that the mouse spends exploring the familiar and novel object is recorded and mice with normal cognitive function typically spend more time with a novel object."}, "5XFAD mice [3]": {"test_system": "5XFAD mice", "experiment": "Learning Rota-Rod test (motor skills and learning) in Alzheimer's mouse model", "type": "in vivo", "settings": "30 mg/kg/day oral", "method": "as §1\nThe Rota-Rod test also is described in King, et al. (supra). Rota-Rod is marketed by Stoelting Company, Wood Dale, Ill. This is a rod that rotates accelerating from 4-40 rpm over five minutes and the amount of time spent on the rod before loss of balance is recorded over three trials. This measures both motor skills, and if conducted over a period of days, it measures learning."}, "5XFAD mice [4]": {"test_system": "5XFAD mice", "experiment": "Anxiety: time spent on the edge of an inverted beaker", "type": "in vivo, mouse", "settings": "FIG. 8", "method": "as §1\nThe time spent on the edge of an inverted beaker is used to assess anxiety, and the lower the time the more the anxious the mouse."}},
  "data": [
    {"smiles": "CC(C)CCNc1ncccc1C(=O)N1CCN(Cc2ccccc2)CC1", "note": "[NSI-189]", "values": [
      {"measurement": "Learning (Barnes maze)", "setting": "5XFAD mice [1]; 5XFAD mice (7 month old), 12 weeks of treatment, FIG. 3", "value": "amelioration of worsened learning deficit"},
      {"measurement": "Memory retention (Barnes maze, retest after two days)", "setting": "5XFAD mice [1]; 6 weeks of treatment, FIG. 2", "value": "improved memory"},
      {"measurement": "Memory retention (Barnes maze, retest after two days)", "setting": "5XFAD mice [1]; 12 weeks of treatment, FIG. 4", "value": "improvement of memory retention"},
      {"measurement": "Learning (Barnes maze, time to find escape box over five consecutive days)", "setting": "5XFAD mice [1]; control and 5XFAD mice, 6 weeks of treatment, FIG. 1", "value": "appeared not to affect the learning curve of either group"},
      {"measurement": "Recognition index (object recognition test)", "setting": "5XFAD mice [2]", "value": "improved the recognition index of 5XFAD mice"},
      {"measurement": "Motor skill at the beginning and learning (time on Rota-Rod)", "setting": "5XFAD mice [3]; 5XFAD mice, 6 weeks of treatment, FIG. 7", "value": "improves both the motor skill exhibited at the beginning and learning even over control"},
      {"measurement": "Behavior of control mice", "setting": "5XFAD mice [3]; wild type control mice, statement covers the behavioural tests", "value": "In no case did NSI-189 affect the behavior of control mice"},
      {"measurement": "Anxiety (time spent on the edge of an inverted beaker)", "setting": "5XFAD mice [4]; control and 5XFAD mice at 7 months (12 weeks of treatment)", "value": "partially reduced the anxiety in both"},
      {"measurement": "Anxiety (time spent on the edge of an inverted beaker)", "setting": "5XFAD mice [4]; control and 5XFAD mice at five months (6 weeks of treatment)", "value": "did not affect either group"}
    ]}
  ]
}
